Source: article PMC7139703, “Thiopurine Derivative-Induced Fpg/Nei DNA Glycosylase Inhibition: Structural, Dynamic and Functional Insights” (International Journal of Molecular Sciences, 2020)
Where two headings read alike, the source gives them in different places.

Columns and labels:
LlFpg/DNA complex C1 = biological target: T1, LlFpg/DNA complex C1 (Lactococcus lactis subsp. cremoris, UniProt P42371); test: EMSA, Fpg DNA binding to 14-mer [THF:C] duplex, complex C1 (lesion recognition complex, Fpg/DNA 1/1); conditions: for IC50: 0.1 nM 14-mer [THF:C], preformed complex; for IC50 / number of TXn equivalents per one protein equivalent for 50% inhibition of DNA binding activity, C1: 0.25 nM Fpg; for effect on stability of complex C1 in the presence of TCEP: [1/1] molar ratio TCEP/compound (1 mM each), Figure S6; for number of TXn equivalents per one protein equivalent for 50% inhibition of DNA binding activity, C1: value in parentheses
T1 construct: made in house; host or cells: E. coli BH540 (fpg defective)
T1 sequence (P42371 2-273, one chain of several): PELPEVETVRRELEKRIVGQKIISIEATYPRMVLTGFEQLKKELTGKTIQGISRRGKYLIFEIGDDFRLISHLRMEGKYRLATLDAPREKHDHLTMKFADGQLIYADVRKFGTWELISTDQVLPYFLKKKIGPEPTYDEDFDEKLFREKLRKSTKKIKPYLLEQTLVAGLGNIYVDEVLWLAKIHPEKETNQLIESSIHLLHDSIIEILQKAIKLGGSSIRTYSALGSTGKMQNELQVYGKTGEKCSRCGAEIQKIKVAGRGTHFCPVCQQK
Excerpt: To complement this study, we examined the effect of TXn on the binding of Fpg to a short DNA duplex containing a tetrahydrofuran (THF), a non-cleavable AP site analog. The enzyme specifically recognizes THF and forms a stable abortive complex with DNA [18, 34, 35, 36]. […] A representative titration experiment (with and without TCEP) of the 14-mer [THF:C] Fpg formed two stable complexes with this short DNA probe that were easily observed by EMSA: a high-affinity complex C1 corresponding to the lesion recognition complex (LRC), with nanomolar affinity, and a complex C2 only observed at higher Fpg concentrations. C2 results in C1 titration by a second Fpg molecule. This finding illustrates that the crystal structure of Fpg bound to 8-oxoG-carbanucleotide-containing DNA [38] (Figure S5). The stability of each preformed complex was then examined by EMSA in the presence of 2TX or TXn. […] The enzyme inactivation mediated by 2TX through ZnF oxidation that directly affects the DNA binding properties of the enzyme is also in agreement with this last observation.
Figure 2 The effect of 2TX and TXn on Fpg DNA binding to abasic site-containing DNA. A 14-mer DNA duplex containing a tetrahydrofurane (THF) site as an abasic site analog was incubated with a limiting Fpg concentration (0.25 nM) with and without increasing concentrations of TXn. Incubation mixtures were then analyzed by electrophoretic mobility shift assay (EMSA), as described in the ‘Materials and Methods’. (a) Titration experiments with (+) and without (-) 2 mM tris(2-carboxyethyl)phosphine hydrochloride (TCEP) C1 and C2 are for the [1/1] and [2/1] Fpg/DNA complexes, respectively (see detailed in the text). (b) Fpg DNA binding concentration-dependence for 2TX and the more efficient TXn inhibitors. A representative EMSA autoradiography with 0.25 nM of Fpg alone (lane no) and 0.5, 2.5, 5, 10, 20, 40, 50, 250, 1000 µM is shown in the upper panel. IC50app^B corresponds to the TXn amount needed to halve the C1 complex formation and was extracted from the dose-response curves (lower panel; Table 1).
The DNA binding activity was measured using EMSA [37]. Briefly, 0.1 nM of the 5′-labeled 14-mer [THF:C] (see above) was incubated with the enzyme at 4 °C for 30 min in 25 mM HEPES/NaOH (pH 7.5), 150 mM NaCl, 5% glycerol, 0.1 mg/mL BSA and 8% DMSO. The incubation mixture was then loaded onto a native 10% polyacrylamide gel (Acryl/Bis 19/1) and electrophoresed at 25 V/cm for 90 min at 4 °C. After electrophoresis, the gels were dried and exposed overnight for autoradiography using a Typhoon imager and quantified with ImageQuant software. To evaluate the inhibitor effect of 2TX/TXn on the DNA binding activity of each Fpg/Nei enzyme, we first determined the experimental conditions required to bind 50% of the DNA probes without an inhibitor in the presence of 8% DMSO (limiting enzyme concentration). Under these conditions, we obtained the half-maximal DNA binding 0.25, 7 and 5 nM of Fpg, hNeil1 and mvNei1. We used this limited enzyme concentrations to evaluate the inhibitor effect of 2TX/TXn on the enzyme DNA binding activity. This effect was determined by the addition of the thio-compound in the pre-equilibrium mixture of the enzyme and DNA probe (30 min) and incubated for an additional 30 min at 4 °C. For the best inhibitors of Fpg, a dose-response curve was established from at least three independent experiments and the IC50 was determined (IC50^B, Table 1).

hNeil1 = hNeil1 (Homo sapiens, UniProt Q96FI4); test: EMSA, hNeil1 DNA binding to THF-containing DNA duplex; conditions: Figure 4
Chain of hNeil1 (Q96FI4 2-290 limits assumed): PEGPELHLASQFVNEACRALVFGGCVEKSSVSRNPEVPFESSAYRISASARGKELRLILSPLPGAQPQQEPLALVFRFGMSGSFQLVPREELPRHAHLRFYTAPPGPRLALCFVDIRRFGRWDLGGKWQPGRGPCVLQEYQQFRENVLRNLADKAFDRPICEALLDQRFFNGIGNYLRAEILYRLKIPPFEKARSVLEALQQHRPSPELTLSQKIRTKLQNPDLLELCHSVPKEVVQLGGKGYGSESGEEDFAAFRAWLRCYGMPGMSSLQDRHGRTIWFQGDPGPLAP

mvNei1 = biological target: T2, mvNei1 (Acanthamoeba polyphaga mimivirus, UniProt Q5UQ00); test: EMSA, mvNei1 DNA binding to THF-containing DNA duplex; conditions: Figure 4
T2 construct: 6His (C); made in house; host or cells: E. coli Rosetta2 (DE3)
T2 sequence (Q5UQ00 whole entry): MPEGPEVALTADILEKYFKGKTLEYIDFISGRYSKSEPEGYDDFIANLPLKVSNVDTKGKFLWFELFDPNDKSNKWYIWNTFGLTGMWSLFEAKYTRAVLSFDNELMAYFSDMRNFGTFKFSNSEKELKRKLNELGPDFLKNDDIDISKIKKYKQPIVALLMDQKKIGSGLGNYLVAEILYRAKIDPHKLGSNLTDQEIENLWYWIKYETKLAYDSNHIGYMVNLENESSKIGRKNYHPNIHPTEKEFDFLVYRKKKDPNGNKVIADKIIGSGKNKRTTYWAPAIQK
Procedure: Figure 4 Comparative analysis of the effect of 2TX and TXn on Fpg/Nei DNA glycosylases. Enzyme activities were measured as described in the Figure 1 legend using 0.1 nM of a 5′-[^32P]-24-mer DNA duplex containing either an 8-oxoG opposite C for LlFpg or a […] (DHU) opposite G for hNeil1 and mvNei1. The DNA probe was incubated with the indicated protein concentration and 0.2 mM TXn compounds in the presence or absence of 1 mM dithiothreitol (DTT) and TCEP (a representative experiment is illustrated by the upper histograms). […]
The DNA binding activity was measured using EMSA [37]. […] After electrophoresis, the gels were dried and exposed overnight for autoradiography using a Typhoon imager and quantified with ImageQuant software. To evaluate the inhibitor effect of 2TX/TXn on the DNA binding activity of each Fpg/Nei enzyme, we first determined the experimental conditions required to bind 50% of the DNA probes without an inhibitor in the presence of 8% DMSO (limiting enzyme concentration). […] This effect was determined by the addition of the thio-compound in the pre-equilibrium mixture of the enzyme and DNA probe (30 min) and incubated for an additional 30 min at 4 °C. For the best inhibitors of Fpg, a dose-response curve was established from at least three independent experiments and the IC50 was determined (IC50^B, Table 1).

[1] = DNA binding at 4 °C, read-out: IC50app^B (Fpg DNA binding) C1
[2] = IC50app^B (Fpg DNA binding) C1, DNA binding at 4 °C

Structure (SMILES)	IC50 (LlFpg/DNA complex C1; [1]) [µM]	effect on stability of complex C1 in the presence of TCEP (LlFpg/DNA complex C1)	number of TXn equivalents per one protein equivalent for 50% inhibition of DNA binding activity, C1 (LlFpg/DNA complex C1)	IC50 (LlFpg/DNA complex C1; [2]) [µM]	effect on hNeil1 DNA binding activity (hNeil1)	effect on mvNei1 DNA binding activity (mvNei1)
FC(F)(F)c1nc(S)c2nc[nH]c2n1 [TX13, 2-trifluoromethyl-6-thiopurine]	6.1 ± 0.5	remained stable	98	–	–	–
O=c1[nH]c(=S)[nH]c2nc[nH]c12 [Compound 2TX, 2-thioxanthine, reference compound]	113 ± 17	–	–	–	–	–
O=c1[nH]c2[nH]c(=S)[nH]c(=O)c2[nH]1 [TX14, 2-thio-6,8-dioxopurine]	–	–	100	25.1 ± 2.4	–	–
O=c1[nH]c(=S)[nH]c2[nH]c(=S)[nH]c12 [TX19]	17.1 ± 2.4	–	68	–	apparent inhibitory effects	apparent inhibitory effects
Nc1ncnc2[nH]c(S)nc12 [TX27]	–	remained stable	177	44.2 ± 8	–	–
